In publication PMC6100347, “Simultaneous Determination of Decursin, Decursinol Angelate, Nodakenin, and Decursinol of Angelica gigas Nakai in Human Plasma by UHPLC-MS/MS: Application to Pharmacokinetic Study” (Molecules : A Journal of Synthetic Chemistry and Natural …, 2018):

Columns and labels:
[1] = Pharmacokinetic study after oral administration of AGN root extract powder in healthy Korean subjects; type: in vivo, human; details: mean ± SE, n = 10; for CL/F / Vd/F: humans; for CL/F / Vd/F / AUC(0-inf) / Tmax / half-life: single usual oral dose of 4.6 g AGN root extract powder; for CL/F: dose of each coumarin / AUC0–∞; for Vd/F / Cmax / AUC(0-inf) / Tmax / half-life: male; for Vd/F: human, plasma; for Cmax / AUC(0-inf) / Tmax / half-life: human plasma; for Cmax: single usual oral dose of 4.6 g AGN root extract powder (0.055 mg D, 0.184 mg DA, 1.095 mg nodakenin)
Protocol: Ten healthy male subjects (Korean, 23–25 years, weight of 56.7–86.2 kg, and height of 159.8–188.0 cm) were included for this clinical trial. These subjects were in good health condition prior to this study based on a physical examination, medical history, and laboratory tests. Clinical trial protocol was approved by the Institutional Review Board of Wonkwang Oriental Medicine Hospital, Gwangju, Korea (https://cris.nih.go.kr, no. KCT0001118). This clinical trial was carried out in accordance with the revised Declaration of Helsinki for biomedical research involving human subjects and Guideline for Good Clinical Practice.
All subjects fasted for at least 10 h before drug administration. They continued the fasting for another 4 h. These subjects abstained from consuming alcohol or xanthine-containing foods, or beverages during the study. A usual oral dose of AGN root extract powder was given to each subject with 240 mL of spring water. The usual dose approved by the MFDS was of 4.6 g. It contained 0.055 mg of D, 0.184 mg of DA, and 1.095 mg of nodakenin. Blood samples were taken from the forearm vein before and at 0.25, 0.5, 0.75, 1, 2, 3, 4, 6, 8, 12, and 24 h after oral administration. Samples were transferred to Vacutainer® (10 mL, Becton Dickinson and Company, NJ, USA) tubes and immediately centrifuged (10,000× g, 10 min, 4 °C) to obtain plasma samples. Obtained plasma samples were transferred to polyethylene tubes and stored at −80 °C until analysis.
Plasma concentration–time data were analyzed with non-compartmental method using WinNonlin® software (version 7.0, Pharsight®, Certara™ Company, Princeton, NJ, USA) to obtain pharmacokinetic parameters. The area under the plasma concentration–time curve from zero to time infinity (AUC0–∞) was calculated as AUC0–t + Ct/k, where Ct is was the last measurable concentration. AUC0–t was calculated by linear trapezoidal rule from zero to the last measurable time point. Oral clearance (CL/F) was calculated as dose of each coumarin divided by AUC0–∞, where F was oral bioavailability. The t1/2 was calculated as 0.693/k, where k was terminal rate constant. All results are expressed as mean value ± standard error (mean ± SE, n = 10).

[2] = Stability in human plasma under various storage conditions (QC samples); type: in vitro ADME; details: in % (unit assumed); for Stability, Processed Sample (10 °C in Auto Sampler for 24 h): extracted human plasma sample; for Stability, Processed Sample (10 °C in Auto Sampler for 24 h) / Stability, Long-Term (−80 °C for 30 Days) / Stability, Bench-Top (8 h at Room Temperature) / Stability, Freeze-Thaw (3 Cycles): mean ± SD, n = 5; for Stability, Long-Term (−80 °C for 30 Days) / Stability, Bench-Top (8 h at Room Temperature) / Stability, Freeze-Thaw (3 Cycles) / Stability mean values (range over all storage conditions and concentrations): human plasma; for Stability, Bench-Top (8 h at Room Temperature): measured vs initial value; for Stability, Freeze-Thaw (3 Cycles): −80 °C and room temperature; for Stability mean values (range over all storage conditions and concentrations): bench-top, processed sample, freeze-thaw, long-term, low and high QC
Protocol: Bench-top stability test was conducted by using unextracted QC samples at room temperature for 8 h. Processed sample stability test was carried out by analyzing extracted samples in an auto sampler at 10 °C for 24 h. Freeze–thaw stability was estimated after three frozen and thawing cycles at −80 °C and room temperature on consecutive days. Long-term stability was examined after storing samples at −80 °C for a month. Stability of each coumarin was estimated by comparing the initial value with measured value after the examination (n = 5). The sample was considered stable if each value was less than 15% and all value of data expressed as mean ± standard deviation (mean ± SD).

[3] = Published PK study of AGN-based dietary supplement Cogni Q after oral administration in humans; type: in vivo, human; details: Cogni Q (ref 23) vs 4.6 g AGN root extract powder
Protocol: PK study of the four coumarins has been reported in several studies. However, presented PK parameters are inconsistent with each other. Of these studies, only one paper has reported a PK study for D, DA, and DOH after oral administration in humans (male, n = 10) for AGN-based dietary supplement Cogni Q (119 mg D and 77 mg DA from four vegicaps). […] Such discrepancies in PK parameters between that study and the current study might be due to differences in dosage and the influence of excipients from different formulations. PKs of nodakenin in humans have not been reported previously.

Compound | CL/F [1] [L/h] | Vd/F [1] [L] | Cmax [1] [ng/mL] | AUC(0-inf) [1] [ng·h/mL] | Tmax [1] [h] | half-life [1] [h] | Stability, Processed Sample (10 °C in Auto Sampler for 24 h) ([2]; nominal conc. 0.15 ng/mL) | Stability, Processed Sample (10 °C in Auto Sampler for 24 h) ([2]; nominal conc. 40 ng/mL) | Stability, Long-Term (−80 °C for 30 Days) ([2]; nominal conc. 0.15 ng/mL) | Stability, Bench-Top (8 h at Room Temperature) ([2]; nominal conc. 0.15 ng/mL) | Stability, Freeze-Thaw (3 Cycles) ([2]; nominal conc. 0.15 ng/mL) | Stability, Long-Term (−80 °C for 30 Days) ([2]; nominal conc. 40 ng/mL) | Stability, Bench-Top (8 h at Room Temperature) ([2]; nominal conc. 40 ng/mL) | Stability, Freeze-Thaw (3 Cycles) ([2]; nominal conc. 40 ng/mL) | Stability mean values (range over all storage conditions and concentrations) [2] | t1/2 of published study relative to t1/2 of this study (times longer) [3]
CC(C)=CC(=O)O[C@H]1Cc2cc3ccc(=O)oc3cc2OC1(C)C [D, decursin] | 3.11 ± 0.42 | 11.9 ± 1.5 | 11.9 ± 1.43 | 22.3 ± 5.04 | 0.44 ± 0.05 | 3.03 ± 0.52 | 100.34 ± 9.38 | 108.94 ± 11.50 | 105.00 ± 9.02 | 101.91 ± 3.91 | 96.54 ± 10.95 | 102.26 ± 10.17 | 108.71 ± 14.16 | 102.80 ± 12.88 | 96.54–108.94 | about 5.84 times
CC(C)(O[C@@H]1O[C@H](CO)[C@@H](O)[C@H](O)[C@H]1O)[C@H]1Cc2cc3ccc(=O)oc3cc2O1 [Nodakenin, nodakenin] | 622.29 ± 159.24 | 2800 ± 420 | 0.95 ± 0.17 | 3.11 ± 0.8 | 0.67 ± 0.04 | 6.28 ± 2.47 | 107.70 ± 9.77 | 103.17 ± 10.19 | 111.62 ± 8.13 | 101.43 ± 7.53 | 103.49 ± 8.40 | 101.90 ± 9.83 | 107.91 ± 6.81 | 104.79 ± 12.76 | 101.43–111.62 | 
C/C=C(/C)C(=O)O[C@H]1Cc2cc3ccc(=O)oc3cc2OC1(C)C [DA, decursinol angelate] | 12.00 ± 1.97 | 60 ± 7.3 | 7.72 ± 0.84 | 19.6 ± 3.71 | 0.31 ± 0.04 | 4.04 ± 0.64 | 111.85 ± 12.49 | 103.88 ± 3.51 | 106.20 ± 9.09 | 108.58 ± 10.18 | 103.55 ± 8.34 | 99.35 ± 4.17 | 107.87 ± 4.07 | 100.75 ± 4.12 | 99.35–111.85 | ~3.7 times
CC1(C)Oc2cc3oc(=O)ccc3cc2C[C@@H]1O [DOH, decursinol] |  |  | 0.92 ± 0.16 | 2.43 ± 0.45 | 0.64 ± 0.06 | 2.62 ± 0.5 | 102.43 ± 5.27 | 104.77 ± 2.48 | 87.35 ± 9.60 | 89.75 ± 11.39 | 92.06 ± 2.28 | 106.93 ± 11.89 | 101.81 ± 7.72 | 104.29 ± 9.30 | 87.35–106.93 | ~2.5 times
